In the SangsterLogP compilation:

logP	SMILES
1.58	C[C@]12C=CC(=O)C=C1CC[C@@H]1[C@@H]2[C@@H](O)C[C@@]2(C)[C@H]1CC[C@]2(O)C(=O)CO
2.7	CCC(=O)O[C@]1(C(=O)CO)CC[C@H]2[C@@H]3CCC4=CC(=O)CC[C@]4(C)[C@H]3[C@@H](O)C[C@@]21C
3.82	CCCCC(=O)O[C@]1(C(=O)CO)CC[C@H]2[C@@H]3CCC4=CC(=O)C=C[C@]4(C)[C@H]3[C@@H](O)C[C@@]21C
2.43	CC(=O)OC1(C(=O)CO)CCC2C3CCC4=CC(=O)C=CC4(C)C3C(=O)CC21C (centres undefined)
3.09	CCC(=O)O[C@]1(C(C)=O)[C@@H](C)C[C@H]2[C@@H]3CCC4=CC(=O)C=C[C@]4(C)[C@@]3(F)C(=O)C[C@@]21C
3.76	CCCC(=O)O[C@]1(C(=O)CCl)[C@@H](C)C[C@H]2[C@@H]3CCC4=CC(=O)C=C[C@]4(C)[C@@]3(F)C(=O)C[C@@]21C
2.35	CC(=O)[C@@]1(O)[C@@H](C)C[C@H]2[C@@H]3CCC4=CC(=O)C=C[C@]4(C)[C@@]3(F)[C@@H](O)C[C@@]21C
3.79	CCCCC(=O)O[C@]1(C(=O)CO)CC[C@H]2[C@@H]3CCC4=CC(=O)CC[C@]4(C)[C@H]3[C@@H](O)C[C@@]21C
2.61	C[C@H]1C[C@H]2[C@@H]3CCC4=CC(=O)C=C[C@]4(C)[C@@]3(F)C(=O)C[C@]2(C)[C@@]1(O)C(=O)CCl
3.18	CCC(=O)O[C@]1(C(=O)CCl)[C@@H](C)C[C@H]2[C@@H]3CCC4=CC(=O)C=C[C@]4(C)[C@@]3(F)[C@@H](O)C[C@@]21C
3.55	CCC(=O)O[C@]1(C(=O)CBr)[C@@H](C)C[C@H]2[C@@H]3CCC4=CC(=O)C=C[C@]4(C)[C@@]3(F)C(=O)C[C@@]21C
3.46	CCC(=O)O[C@]1(C(=O)CCl)[C@@H](C)C[C@H]2[C@@H]3CCC4=CC(=O)C=C[C@]4(C)[C@@]3(F)C(=O)C[C@@]21C
2.06	C[C@]12C[C@H](O)[C@H]3[C@@H](CCC4=CC(=O)CC[C@@]43C)[C@@H]1CC[C@@H]2C(=O)CO
3.63	CCCC(=O)O[C@]1(C(=O)CCl)[C@@H](C)C[C@H]2[C@@H]3CCC4=CC(=O)C=C[C@]4(C)[C@@]3(F)[C@@H](O)C[C@@]21C
3.34	CCC(=O)O[C@]1(C(=O)CCl)[C@@H](C)C[C@H]2[C@@H]3CCC4=CC(=O)C=C[C@]4(C)[C@H]3[C@@H](O)C[C@@]21C
3.18	CCCC(=O)O[C@]1(C(=O)CO)CC[C@H]2[C@@H]3CCC4=CC(=O)CC[C@]4(C)[C@H]3[C@@H](O)C[C@@]21C
3.06	CCC(=O)OCC(=O)[C@@]1(O)[C@@H](C)C[C@H]2[C@@H]3CCC4=CC(=O)C=C[C@]4(C)[C@@]3(F)[C@@H](O)C[C@@]21C
2.91	CCCC(=O)OCC(=O)[C@@]1(O)CCC2C3CCC4=CC(=O)CC[C@]4(C)C3C(O)C[C@@]21C (some centres undefined)
3.87	CCCCC(=O)OCC(=O)[C@@]1(O)[C@@H](C)C[C@H]2[C@@H]3CCC4=CC(=O)C=C[C@]4(C)[C@@]3(F)[C@@H](O)C[C@@]21C
3.28	CCC(=O)O[C@]1(C(=O)CCl)[C@@H](C)C[C@H]2[C@@H]3CCC4=CC(=O)C=C[C@]4(C)[C@@]3(Cl)[C@@H](O)C[C@@]21C
3.55	CCCC(=O)OCC(=O)C1(O)C(C)CC2C3CCC4=CC(=O)C=CC4(C)C3(F)C(O)CC21C (centres undefined)
5.26	CCCCC(=O)OCC(=O)[C@@]1(OC(=O)CCCC)[C@@H](C)C[C@H]2[C@@H]3CCC4=CC(=O)C=C[C@]4(C)[C@@]3(F)[C@@H](O)C[C@@]21C
2.48	C[C@H]1C[C@H]2[C@@H]3CCC4=CC(=O)C=C[C@]4(C)[C@@]3(F)[C@@H](O)C[C@]2(C)[C@@]1(O)C(=O)CCl
2.8	CCC(=O)OCC(=O)[C@@]1(O)CC[C@H]2[C@@H]3CCC4=CC(=O)CC[C@]4(C)[C@H]3[C@@H](O)C[C@@]21C
1.37	CC12CCC(=O)C=C1CCC1C3CCC(O)(C(=O)CO)C3(C)CC(=O)C12F (centres undefined)
1.51	C[C@]12C=CC(=O)C=C1CC[C@H]1[C@@H]3CC[C@](O)(C(=O)CO)[C@@]3(C)C[C@H](O)[C@@]12F
3.3	CCC(=O)O[C@]1(C(=O)CCl)[C@@H](C)C[C@H]2[C@@H]3CCC4=CC(=O)C=C[C@]4(C)[C@H]3C(=O)C[C@@]21C
3.62	CCCCC(=O)OCC(=O)[C@@]1(O)CC[C@H]2[C@@H]3CCC4=CC(=O)CC[C@]4(C)[C@H]3[C@@H](O)C[C@@]21C
2.45	CC(=O)O[C@]1(C(=O)CO)CC[C@H]2[C@@H]3CCC4=CC(=O)CC[C@]4(C)[C@H]3C(=O)C[C@@]21C
